Measurements as given in PubChem BioAssay AID504539 (Broad Institute, 2011).

Test system: Cell-based prion protein 5' UTR reporter, plate reader
Test: prion protein 5' UTR mRNA inhibitors – cell-based, plate reader, cherry-picked samples, dose response (AID 504539)

Row | SMILES | AC50 [µM]
1 | COc1ccc(/C=C2\SC(=S)N(CCCC(=O)NNC(=O)c3ccccc3O)C2=O)cc1 | 0.63
2 | CN(C)c1ccc(/C=N/Nc2cccc(C(=O)O)c2)cc1 | 0.547
3 | CC(C)(C)C(=O)Nc1cc2nn(-c3ccccc3)nc2cc1Cl | < 0.038
4 | Nc1nc(F)nc2c1ncn2[C@@H]1O[C@H](CO)[C@@H](O)[C@H]1O | 0.483
5 | CCN1C=CC(=C2C(=O)c3ccccc3C2=O)C=C1 | 0.089
6 | C=CCn1c(C)cc(C2=NNC(=NC(C)(C)C)SC2)c1C | 0.714
7 | Cc1cc(C(=O)CN2C(=O)c3ccccc3S2(=O)=O)c(C)n1CC1CCCO1 (stereo not drawn) | 0.271
8 | COc1ccc(C2=Nn3c(nnc3-c3ccccc3OC)SC2)cc1OC1CCOC1 (stereo not drawn) | 3.56
9 | COC(=O)c1ccc(Oc2cc(C)nc(-n3nc(C)cc3C)n2)cc1 | 0.536
10 | CC(C)CCCCCCCCCCCCC(=O)NCC(=O)NC1C(C)OC(Nc2ncnc3nc[nH]c23)C(O)C1O (stereo not drawn) | 0.073
11 | O=C1c2cccc3cc([N+](=O)[O-])cc(c23)C(=O)N1CCN1CCCC1 | 0.521
12 | COc1ccc(/C=N/NC(=O)c2cc3c(OC)ccc(OC)c3[nH]2)cc1O | 1.34
13 | CCOC(=O)C(C)Oc1cccc2c(=O)n(CC(=O)NCc3ccccc3)ccc12 (stereo not drawn) | 0.919
14 | Nc1ncnc2c(C3OC(CO)C(O)C3O)c[nH]c12 (stereo not drawn) | 0.076
15 | Nc1ccc(-c2ncc(-c3ccccc3)o2)cc1 | 0.145
16 | O=C(N/N=C/c1ccccc1)c1[nH]c2ccc(Br)cc2c1-c1ccccc1 | 0.46
17 | Cc1ccc(/C=N/NC(=O)COc2ccccc2-c2ccccc2)cc1 | 0.172
18 | COc1cc(C2c3[nH]c4ccccc4c3CC3COC(=O)N32)cc(OC)c1O (stereo not drawn) | 0.27
19 | Cc1cccc(C(=O)O/N=C(\N)c2ccccn2)c1 | 0.915
20 | Cc1ccc(C(=O)O/N=C(\N)c2ccccc2)c(Cl)c1 | 0.948
21 | C[C@H]1[C@@H](OS(=O)(=O)O)C[C@@H]2C[C@H]([C@@H](O)c3cc(=O)[nH]c(=O)[nH]3)NC3=NC[C@H]1N32 | 2.56
22 | CN(C)c1ccc(NC(=S)c2ccccn2)cc1 | 0.222

Row | SMILES | AC50 [µM]
23 | Cc1ccc(C(C)C)c(OCc2ccc(C(=O)N/N=C/c3cccc(O)c3O)cc2)c1 | 1.51
24 | CCCOc1ccccc1C1CC(=O)Nc2cc3c(cc21)OCCO3 (stereo not drawn) | 2.9
25 | C[C@H]1O[C@@H](OC2CC[C@]3(C=O)[C@H]4CC[C@]5(C)[C@@H](C6=CC(=O)OC6)CC[C@]5(O)[C@@H]4CC[C@]3(O)C2)CC2OC(C)(C)OC21 (stereo partly drawn) | 0.123
26 | COc1cc2c(c(OC)c1O)-c1ccc(OC)c(=O)cc1C(NC(=O)C(F)(F)F)CC2 (stereo not drawn) | 0.14
27 | O=C(OCC(F)(F)F)c1cccc(COc2ccc3ccccc3c2)c1 | 0.376
28 | CC1=Nc2cc(C(=O)NCc3ccco3)ccc2Sc2ccc(C)cc21 | 1.67
29 | CCCC[C@@H](C)C[C@@H](C)C(=O)N(C)[C@@H](CC(C)C)C(=O)N[C@H](C(=O)N(C)[C@H](C(=O)N1C[C@@H](O)C[C@H]1C(=O)N1C(=O)C=C[C@@H]1C)C(C)C)C(C)OC(C)=O (stereo partly drawn) | < 0.038
30 | O=C(O)c1ccc(N/N=C/c2ccc3nccnc3c2)cc1 | 0.56
31 | CC1CCOC(=O)C=CC=CC(=O)OC2CC3OC4C5OC5(C)C(O)CC4(COC(=O)C1O)C2(C)C31CO1 (stereo not drawn) | 0.148
32 | O=C(Nc1nccs1)c1cc2c(s1)CCCCC2 | 0.128
33 | CC1(C)CC[C@]2(C(=O)n3ccnc3)CC[C@]3(C)[C@H](C(=O)C=C4[C@@]5(C)C=C(C#N)C(=O)C(C)(C)[C@@H]5CC[C@]43C)[C@@H]2C1 | 0.808
34 | COc1cc(C(=O)N2CCN(c3cccc(C)c3C)CC2)cc(OC)c1OC | 1.41
35 | CN(C(=O)OC(C)(C)C)c1ccc(-c2nc3ccccc3s2)cc1 | < 0.038
36 | CN(C)c1ccc(Nc2nc(N)c3ccccc3n2)cc1 | 0.562
37 | O=[N+]([O-])c1cccc2nc3ccccc3c(NCCCn3ccnc3[N+](=O)[O-])c12 | 0.076
38 | CCCOC(=O)c1[nH]c2c(c1C)C(=O)CC(c1cccs1)C2 (stereo not drawn) | 0.132
39 | Cc1nn(C(C)(C)C)c(C)c1/C=N/OC(=O)Nc1ccc(Cl)cc1 | < 0.038
40 | O=C(Nc1ccc([N+](=O)[O-])cc1)C(=O)Nc1cccc(C(=O)O)c1 | 0.164
41 | Cc1ccc(-c2nc(-c3ccccn3)no2)cc1 | 0.14
42 | CCCCCN1C=CC(=C2C(=O)c3ccccc3C2=O)C=C1 | 0.248
43 | CCCOc1ccc2cc(-c3ccccn3)c(=O)oc2c1 | 0.399
44 | Cc1ccc(C(=O)n2c(N)nc3ccccc32)cc1 | 0.493

Row | SMILES | AC50 [µM]
45 | Cc1ccc(C(=O)N/N=C/c2ccc([N+](=O)[O-])s2)cc1 | 1.01
46 | O=c1c2ccccc2sc2ccc(C#CC3(O)CCCCC3)cc12 | < 0.038
47 | COc1ccc(-n2ncc3c(N(C)C4CCCCC4)ncnc32)cc1 | 1.52
48 | Cc1cccc(/C=N/Nc2ccc3ccccc3n2)c1 | 0.456
49 | CC(=O)OC1C2(CC3N4C(=O)C5(CO)SSC4(CC31O)C(=O)N5C)OC(C)C(C)(C)C2=O (stereo not drawn) | 0.295
50 | Cc1nn(-c2ccccc2)c(C)c1/C=N/NC(=O)c1cc(-c2ccccc2)n[nH]1 | 0.783
51 | COC(=O)C1CCC(=O)N1C(c1ccc(OC)cc1)c1cc(OC)c(OC)c(OC)c1 (stereo not drawn) | 0.676
52 | O=C(Nc1cc2ccccc2oc1=O)c1ccccc1 | 0.696
53 | COc1ccc(C(=O)NN(C)c2nc(C(F)(F)F)nc3ccccc23)cc1 | 0.163
54 | Cc1cc([N+](=O)[O-])c2ccccc2[n+]1[O-] | 0.256
55 | CCOc1ccccc1C1C2=C(COC2=O)Nc2cc3c(cc21)OCO3 (stereo not drawn) | 1.05
56 | COc1cc2c(c(OC)c1OC)-c1ccc(OC)c(=O)cc1[C@@H](N(C)CC#CCO)CC2 | 0.235
57 | COc1ccccc1NC(=O)c1oc2ccccc2c1NC(=O)c1cc(OC)c(OC)c(OC)c1 | 0.537
58 | Cn1cc(/C=N/n2cnc3scc(-c4ccc(Cl)cc4)c3c2=O)c2ccccc21 | 0.499
59 | O=C(NC1=NCCS1)C1COc2ccccc2O1 (stereo not drawn) | 0.296
60 | Brc1ccc(N=Nc2ccc3ccccc3n2)cc1 | 0.543
61 | Cc1ccc(C(=O)O/N=C(\N)c2ccccn2)c(C)c1 | 0.046
62 | COCCCN=C1NN=C(c2cc(C)n(Cc3ccco3)c2C)CS1 | 1.13
63 | COc1cccc(NC(=O)Nc2cccc(C(=O)O)c2)c1 | 0.645
64 | Cc1cc(/C=C2\SC(=S)N(C)C2=O)c(C)n1-c1ccc(O)cc1 | 0.13
65 | COc1ccc(-c2nsc3c(N4CCCCC4C)ncnc23)cc1 (stereo not drawn) | 0.051
66 | Cc1ccccc1OCC(=O)Nc1cccc(C(=O)O)c1 | 0.422

Row | SMILES | AC50 [µM]
67 | COc1ccc(C(=O)/C=C/Nc2ccccn2)cc1 | 0.369
68 | Fc1ccc(-c2nnc(NC3=NCCCCC3)o2)cc1 | 0.372
69 | C[C@]12CCC3C(CCC4=CC(O)CC[C@@]43/C=N/O)C1(O)CCC2C1=CC(=O)OC1 (stereo partly drawn) | 0.308
70 | COc1ccccc1C(=O)Nc1nc2ccccc2[nH]1 | 0.178
71 | CC(=O)OC1C(O)C(C)OC(OC2C(OC(=O)C3CCC4C(C3)OC3(CC(OC(=O)/C=C/c5ccccc5)C(C)CO3)C43CO3)OC(C)C(O)C2OC(C)=O)C1O (stereo not drawn) | 0.104
72 | CC(=O)N(/N=C1\Sc2ccccc2C1=O)c1ccc(C)cc1C | 4.72
73 | CSC1SCC2C(=O)N(C)C(C(C)C)C(=O)OCC(NC(=O)c3cnc4ccccc4n3)C(=O)NC(C)C(=O)N(C)C1C(=O)N(C)C(C(C)C)C(=O)OCC(NC(=O)c1cnc3ccccc3n1)C(=O)NC(C)C(=O)N2C (stereo not drawn) | < 0.038
74 | O=C(Nc1cccc(C(=O)O)c1)Nc1ccc2c(c1)OCO2 | 0.397
75 | CCOc1ncccc1C(=O)N1CCN(c2cccc(C)c2C)CC1 | 0.517
76 | CCOC(=O)C(C)Oc1cccc2c(=O)n(CC(=O)NCc3ccc(F)cc3)ccc12 (stereo not drawn) | 0.486
77 | Cn1cccc1/C=C1\SC(=Nc2ccc(O)cc2)NC1=O | 0.63
78 | C[C@@H]1O[C@@H](O[C@@H]2C=C3CCC4C(CC[C@]5(C)[C@@H](c6ccc(=O)oc6)CC[C@]45O)[C@@]3(C)CC2)[C@H](O)[C@H](O)[C@H]1O (stereo partly drawn) | < 0.038
79 | NC1=C(Cl)C(=O)c2ccc(S(N)(=O)=O)cc2C1=O | 0.226
80 | O=C(O)c1cccc(N/N=C/c2cccs2)c1 | 0.349
81 | C=CCn1c(SCc2c(C)noc2C)nc2ccccc2c1=O | 0.851
82 | O=C1C(=C2SCCCS2)CC/C1=C\c1ccc(F)cc1 | 0.292
83 | CCn1c(C)nc2cc(-c3nc4n(n3)Cc3ccccc3-4)ccc21 | 0.044
84 | O=C(N/N=C/c1c[nH]c2ccccc12)c1[nH]c2ccc(Br)cc2c1-c1ccccc1 | 0.774
85 | CN1CCN(c2ccc(-c3ccc4ccccc4n3)cc2)CC1 | 0.113
86 | CC(C)(C)c1ccc(/C=N/Nc2cccc(C(=O)O)c2)cc1 | 2.11
87 | N/C(=N\OC(=O)c1ccccc1Cl)c1ccccn1 | 0.558
88 | CCOC(=O)c1ccc(NC(=O)Nc2ccon2)cc1 | 0.596

Row | SMILES | AC50 [µM]
89 | Cc1ccc(NC(=O)c2cc3ccccc3oc2=O)cc1S(=O)(=O)N(C)C | < 0.038
90 | CC(=O)OCC12CC(OC(=O)CC(C)C)C(C)=CC1OC1C(O)C(OC(C)=O)C2(C)C12CO2 (stereo not drawn) | < 0.038
91 | Cc1ccc(OCC(=O)c2cc(C)n(-c3ccccc3)c2C)c([N+](=O)[O-])n1 | 3.27
92 | Cc1csc(NC(=O)CCc2c(C)nc3cc(-c4ccc(Cl)cc4)nn3c2C)n1 | 1.16
93 | CC(=NNC(=S)N(Cc1ccccn1)Cc1ccccn1)c1cnccn1 | 0.878
94 | COCCn1c(C)cc(C2=NNC(=NC3CC3)SC2)c1C | < 0.038
95 | COc1ccc(C[C@H]2NC[C@H](O)[C@H]2OC(C)=O)cc1 | 0.378
96 | CC(C)(C)C(=O)Nc1ccc(NC(=O)c2ccco2)nc1 | 0.244
97 | COc1ccc(-n2ncc3c(N4CCCCC4)ncnc32)cc1 | 0.661
98 | COc1c(C=O)c2c(c(OC)c1OC)-c1ccc(OC)c(=O)cc1C(NC(C)=O)CC2 (stereo not drawn) | 0.3
99 | OCCCNc1cc(-c2ccnc(Nc3cccc(Cl)c3)n2)ccn1 | 0.181
100 | CCN(CC)c1ccc2c(cc1=O)[C@@H](NC)CCc1cc(OC)c(OC)c(OC)c1-2 | 0.634
101 | Cc1ccc(C(=O)Nc2cnc3ccccc3c2)cc1 | 0.094
102 | C=CCOc1ccc(/C=C2\SC(=S)N(CCC(=O)O)C2=O)cc1 | 0.963
103 | CCOc1ccc(C(=O)O/N=C(\N)c2ccccn2)cc1 | 0.134
104 | CCSc1nc(-c2ccccc2)nc(C(Cl)Cl)n1 | 1.06
105 | CC[C@@]1(O)C(=O)OCc2c1cc1n(c2=O)Cc2cc3c(NC(=O)CN)cccc3nc2-1 | 0.232
106 | CN1CCc2c(sc(NC(=O)c3ccc([N+](=O)[O-])o3)c2C(N)=O)C1 | 0.972
107 | COc1cccc(/C=N/Nc2ccc(C(=O)O)cc2)c1O | 0.222
108 | Cc1ccc(CCC(=O)Nc2ncc(Cc3cc(Cl)ccc3Cl)s2)o1 | 0.841
